Laboratory results from patent US8796302B2 (priority 2004, dated 2014).

Tests used:
TNFα = TNFα release (ELISA) after LPS; assay type: cell-based, rat
Method: (§1) Different pro-inflammatory factors that are released from microglia were also monitored. The production of NO was determined by measuring the accumulated levels of nitrite in the supernatant with the Griess reagent, and release of TNFα was measured with a rat TNFα enzyme-linked immunosorbent assay kit from R & D System (Minneapolis, Minn.).
Mesencephalic neuron-glia cultures were pretreated with VPA or vehicle control for 48 hours prior to stimulation with 20 ng/ml LPS. The release of TNF-α was determined 3 hours after LPS treatment. The release of TNFα, was measured with a rat TNFα enzyme-linked immunosorbent assay kit from R & D System (Minneapolis, Minn.).

NO = NO production (nitrite, Griess reagent) after LPS; assay type: cell-based, rat; details: for LPS-stimulated NO production (nitrite): 24 after LPS 20 ng/ml
Method: as §1
The cultures were prepared as in Example 1 and were first treated with LPS 20 ng/ml or vehicle; 12 hours later the LPS was removed and the cultures were treated with 10^−5 M, 10^−10M, and 10^−14M DM. Twenty four hours later, nitrite oxide and PGE2 production were assessed as in Example 5. The results are expressed as a percentage of LPS treated culture and are the mean±S.E.M of four and three experiments with triplicates in each experiment. *, p<0.05 compared with the LPS-treated culture. ###, P<0.001 compared with the control culture.
Production of nitric oxide (NO) was determined in the mesencephalic neuron-glia cultures, following pretreatment and LPS stimulation as described above, by measuring the accumulated levels of nitrite in the supernatant with Griess reagent. Accumulation of nitrite, an indicator of LPS-stimulated production of NO, was determined 24 after LPS stimulation.

[1] = test system: dopaminergic neurons in mesencephalic neuron-enriched cultures; experiment: [3H]DA uptake in Aβ- or MPP+-treated neuron-enriched cultures; assay type: cell-based, rat
Method: Neuron-enriched culture were prepared from the ventral mesencephalic tissues of embryonic day 13-14 Fisher F344 rats (Charles River Laboratories, Raleigh, N.C.) as follows. Dissociated cells were seeded at 1×10^5/well in 96-well and 5×10^5/well to poly-D-lysine-coated 96-well and 24-well plates, respectively. Glial proliferation was suppressed by the inclusion of cytosine β-D-arabinocide (5-10 μM). Seven day old cultures were used for treatment, which were composed of 91% neurons, 9% astrocytes, and <0.1% microglia. The cultures were pre-treated with OM, 10^−5 M, 10^−10 M, and 10^−14M DM 30 minutes before treatment with vehicle alone, 4 μM Aβ or 0.5 μM MPP^+5 as in Example 1. DA uptake was also measured as in Example 1 and the results are expressed in both FIGS. 4A and B as a percentage of the control cultures and are the mean±S.E.M. of four individual experiments with triplicates in each experiment. […]
Neuron-enriched cultures seeded in 24-well culture plates were pretreated for 48 hours with 0.6 mM VPA followed by treatment with 0.5 μM MPP^+. [^3H]DA uptake was measured 7 days after MPP^+ treatment according to procedures described in Example 1. Results are expressed as mean±SEM of percentage of vehicle control from three independent experiments performed in duplicate. *,p<0.05 compared with vehicle-treated cultures. †, p<0.05 compared with corresponding MPP^+-treated cultures.

[2] = test system: intracellular reactive oxygen species; experiment: Intracellular ROS (DCFH oxidation) after LPS; assay type: cell-based, rat
Method: The production of intracellular reactive oxygen species was measured by DCFH oxidation. The DCFH-DA (Molecular Probes, Eugene, Oreg.) reagent passively diffuses into cells in which it is hydrolyzed by intracellular esterase to liberate 2′-7′-dichlorofluoressein which, during reaction with oxidizing species, yields a highly fluorescent compound 2′-7′-dichlorofluorescein (DCF) that is trapped inside the cell. For each measurement, a fresh stock solution of CM-H2-DCFDA (5 mM) was prepared in dimethylsulfoxide. CM-H2-DCFDA, diluted to a final concentration of 1 μM in phenol red-free HBSS containing 2% FBS and 2% HS, was added to cultures and incubated for about 30 min at about 37° C. After washing two times with warm HBSS, vehicle or stimulators in HBSS were added to cultures. After incubation for about 30 min at about 37° C., fluorescence intensity was measured at 485 nm for excitation and 530 nm for emission using a SpectraMax Gemini XS fluorescence microplate reader (Molecular Devices).
The data are expressed as the percent of the control cultures and are the mean±SEM of three experiments performed in triplicate. *P<0.05, **P<0.01, compared to control.
Assay of intracellular ROS is performed as follows. 5-(and −6)-Chloromethyl-2′,7′-dichlorodihydrofluorescein diacetate (CM-H2-DCFDA) (Molecular Probes, Eugene, Oreg.), a chloromethyl derivative of H2-DCFDA, passively diffuses into cells in which it is hydrolyzed by intracellular esterases to liberate 2′-7′-dichlorofluorescein (DCF) which, during reaction with oxidizing species, yields a highly fluorescent compound that is trapped inside the cell. […] Cells were seeded at 1×10^5/well in 96-well plates for one day followed by treatment with 0.6 mM or 1.2 mM VPA for 24 h. The cultures were used for the assay of intracellular ROS.
After washing two times with warm Hank's balanced salt solution (HBSS), CM-H2-DCFDA, diluted to a final concentration of 1 μM in phenol red-free HBSS, was added to cultures and incubated for 30 min at 37° C. Then cultures were added with 0.6 or 1.2 mM VPA in HBSS again for 30 min and followed the treatment with 100 ng/ml LPS for 2 hours at 37° C., fluorescence intensity was measured at 485 nm for excitation and 530 nm for emission using a SpectraMax Gemini XS fluorescence microplate reader (Molecular Devices, Sunnyvale, Calif.).

[3] = test system: dopaminergic neurons in rat primary mesencephalic neuron-glia cultures; experiment: [3H]DA uptake in LPS-treated mesencephalic neuron-glia cultures; assay type: cell-based; details: LPS 10 ng/ml, 7 days; for LPS-induced decrease in [3H]-dopamine uptake: 30 min pretreatment
Method: Neuron-glia cultures were prepared from the ventral mesencephalic tissues of embryonic day 13-14 Fisher F344 rats or day 12-13 wild-type C57BL/6J (gp91phox^+/+) mice. Dissociated cells were seeded at 1×10^5/well and 5×10^5/well to poly-D-lysine-coated 96-well and 24-well plates, respectively. Cells were maintained at about 37° C. in a humidified atmosphere of 5% CO2 and 95% air, in minimal essential medium (MEM) containing 10% fetal bovine serum (FBS), 10% horse serum (HS), 1 gm/l glucose, 2 mM L-glutamine, 1 mM sodium pyruvate, 100 μM nonessential amino acids, 50 U/ml penicillin, and 50 μg/ml streptomycin. Seven-day-old cultures were used for treatment.
Dextromethorphan (obtained from Sigma-Aldrich (St. Louis, Mo.) as dextromethorphan hydrobromide) was freshly prepared as a stock solution (1 mM) in ddH2O and sterile-filtered right before use. For treatment of the cultures, the DM was serially diluted (10×) with fresh culture medium containing 2% of fetal bovine and horse serum. The neuron-glia cultures were pretreated with 10^−5-10^−17M DM 30 minutes prior to treatment with 10 ng/ml of LPS.
Seven days after treatment, the degeneration of dopaminergic neurons was assessed by [^3H]-dopamine (DA) uptake assays. The [^3H]-DA uptake assays were performed as follows. Cultures were washed twice with warm Krebs-Ringer buffer (KRB, 16 mM sodium phosphate, 119 mM NaCl, 4.7 mM KCl, 1.8 mM CaCl2, 1.2 mM MgSO4, 1.3 mM EDTA, and 5.6 mM glucose; pH7.4) and then incubated for about 20 minutes at about 37° C. with 1 μM [^3H]-DA in KRB in order to allow for the uptake of DA. Afterwards, the cultures were washed (three times) with ice-cold KRB and the cells were collected in 1 N NaOH. Radioactivity was determined by liquid scintillation counting.
This example tests whether or not post-treatment with DM is still neuroprotective in LPS-induced neurotoxicity. Neuron-glia co-cultures as prepared in Example 1 were first treated with LPS (20 ng/ml) for twelve hours, and then LPS was removed by removing the media from the cultures and washing twice with PBS. Different concentrations of DM (10^−5, 10^−10, and 10^−14 M) were then added to the cultures and incubation was continued for another 6 or 7 days. The DA uptake and the superoxide production were measured as in Example 1 and 5.
Neuron-glia cell cultures were prepared as in Example 1, and pretreated with the various peptide fragments of Table 1 (peptide fragments were obtained from BACHEM) for 30 minutes followed by addition of 5 ng/ml of LPS. DA neurotoxicity was measured as an Example 1 at 7 days post treatment.
DA neurotoxicity was measured at 7 days post treatment as in Example 1. Dopaminergic neuronal death was determined at 7 days post treatment using immunocytochemical staining as in Example 2.
Neuron-glia cultures were prepared from the ventral mesencephalic tissues of embryonic day 13-14 rats. Dissociated cells were seeded at 1×10^5/well and 5×10^5/well to poly-D-lysine-coated 96-well and 24-well plates, respectively.

[4] = DM 10^−5 M and 10^−14 M pretreatment

CCCC(CCC)C(=O)O [VPA, Valproic acid]
LPS-induced TNFα production (TNFα; VPA 0.2 mM, 48 h pretreatment, 3 h after LPS 20 ng/ml): significant inhibited
LPS-induced production of TNFα (TNFα; VPA 0.4 or 0.6 mM, 48 h pretreatment, 3 h after LPS 20 ng/ml): completely blocked
LPS-stimulated NO production (nitrite) (NO; VPA 0.4 mM pretreatment): 54 % of the control
LPS-stimulated NO production (nitrite) (NO; VPA 0.6 mM pretreatment): 78 % of the control
MPP+-induced degeneration of DA neurons (DA uptake) ([1]; VPA 0.6 mM, 48 hours pretreatment, MPP+ 0.5 μM, 7 days): blocked
LPS-induced increase of iROS level ([2]; VPA 0.6 or 1.2 mM pretreatment, enriched microglia, LPS 100 ng/ml 2 h): completely blocked
basal iROS levels ([2]; VPA alone 0.6 mM, enriched microglia): reduced basal iROS levels

Oc1ccc2c(c1)[C@@]13CCCC[C@H]1[C@@H](C2)NCC3 [3-HM, 3-hydroxymorphinan]
LPS-induced reduction in DA uptake ([3]; 3-HM 1-5 μM pretreatment): significantly attenuated the LPS-induced reduction in DA uptake

COc1ccc2c(c1)[C@@]13CCCC[C@H]1[C@@H](C2)N(C)CC3 [DM, d-3-methoxy-N-methylmorphinan]
LPS-induced increase in the release of TNFα (TNFα; [4]): significantly decreased
LPS-induced increase in the release of TNFα (TNFα; DM 10^−10 M pretreatment): no significant reduction
LPS-induced increase in the release of NO (NO; [4]): significantly decreased
LPS-induced increase in the release of NO (NO; DM 10^−10 M pretreatment): no significant reduction
NO production, post treatment (NO; femtomolar DM after removal of LPS (20 ng/ml, 12 h), 24 h): reduction of NO and PGE2 production
Aβ (1-42)-induced reduction of DA uptake ([1]; DM 10^−5, 10^−10, 10^−14 M, Aβ (1-42) 4 μM, 9 days, neuron-enriched): did not significantly alter
LPS-induced decrease in [3H]-dopamine uptake ([3]; DM 10^−5 and 10^−6 M): attenuated the LPS-induced decrease
LPS-induced decrease in [3H]-dopamine uptake ([3]; DM 10^−8 to 10^−12 M): no protective effects
LPS-induced increase in intracellular reactive oxygen species [2, 4]: significantly decreased
LPS-induced increase in intracellular reactive oxygen species ([2]; DM 10^−10 M pretreatment): no significant reduction
